Patent US20120270237A9, “METHODS FOR THE IDENTIFICATION OF KINASE INTERACTING MOLECULES AND FOR THE PURIFICATION OF KINASE PROTEINS” (Cellzone AG, priority 2009, published 2012)

How the values were obtained:
IRAK4 = target: T1, IRAK4 (Homo sapiens, UniProt Q9NWZ3); test: Competition binding assay in HL60 cell lysate, antibody detection; design: endogenous in cells; host or cells: HL60; settings: dose response curve, anti-IRAK4 antibody
T1 sequence (Q9NWZ3 1-460): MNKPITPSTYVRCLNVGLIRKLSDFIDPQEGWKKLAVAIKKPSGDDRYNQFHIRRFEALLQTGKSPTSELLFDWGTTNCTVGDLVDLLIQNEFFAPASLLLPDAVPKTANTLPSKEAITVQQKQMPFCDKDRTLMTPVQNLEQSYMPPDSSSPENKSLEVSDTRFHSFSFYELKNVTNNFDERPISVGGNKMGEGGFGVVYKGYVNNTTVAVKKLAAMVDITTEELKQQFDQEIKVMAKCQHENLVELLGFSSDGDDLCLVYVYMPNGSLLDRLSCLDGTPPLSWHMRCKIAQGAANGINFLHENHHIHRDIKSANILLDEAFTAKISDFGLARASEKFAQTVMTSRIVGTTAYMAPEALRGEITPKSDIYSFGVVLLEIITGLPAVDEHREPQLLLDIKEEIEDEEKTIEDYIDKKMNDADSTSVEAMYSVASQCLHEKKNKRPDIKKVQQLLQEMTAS
Protocol: The experiment was performed as described in example 7. The test compound (or DMSO as solvent control) and diluted cell lysate were added to the affinity matrix and incubated for two hours at 4° C. After washing, captured proteins were eluted with SDS-containing sample buffer. After spotting of eluate samples onto Nitrocellulose membranes IRAK1 was detected with an anti-IRAK1 antibody and IRAK4 with anti-IRAK4 antibody followed by incubation with a secondary fluorescently labeled detection antibody.
Various concentrations of test compounds were added to HL60 lysate samples and allowed to bind to the proteins contained in the lysate sample. At the same time the affinity matrix with the immobilized compound (FIG. 3, CZC31326) was added as well in order to capture proteins not bound to the test compound. After the incubation time the beads with captured proteins were separated from the lysate. Bound proteins were then eluted and the presence of IRAK1 and IRAK4 was detected and quantitavely determined using specific antibodies and the Odyssey Infrared Detection system. […]
The kinases in the eluates were detected and quantified by spotting on Nitrocellulose membranes and using a first antibody directed against the kinase of interest and a fluorescently labeled secondary antibody (anti-mouse or anti-rabbit IRDye™ antibodies from Rockland). […]

BTK = BTK (Homo sapiens, UniProt Q06187); test: Kinobeads competition binding, L-363 cell lysate; design: capturing and identification of kinases from L-363 cell lysate; endogenous in cells; host or cells: L-363 cells, treated with MG132 before harvest; settings: 10 μM free compound, L-363 lysate
BTK, sequence (Q06187 whole entry): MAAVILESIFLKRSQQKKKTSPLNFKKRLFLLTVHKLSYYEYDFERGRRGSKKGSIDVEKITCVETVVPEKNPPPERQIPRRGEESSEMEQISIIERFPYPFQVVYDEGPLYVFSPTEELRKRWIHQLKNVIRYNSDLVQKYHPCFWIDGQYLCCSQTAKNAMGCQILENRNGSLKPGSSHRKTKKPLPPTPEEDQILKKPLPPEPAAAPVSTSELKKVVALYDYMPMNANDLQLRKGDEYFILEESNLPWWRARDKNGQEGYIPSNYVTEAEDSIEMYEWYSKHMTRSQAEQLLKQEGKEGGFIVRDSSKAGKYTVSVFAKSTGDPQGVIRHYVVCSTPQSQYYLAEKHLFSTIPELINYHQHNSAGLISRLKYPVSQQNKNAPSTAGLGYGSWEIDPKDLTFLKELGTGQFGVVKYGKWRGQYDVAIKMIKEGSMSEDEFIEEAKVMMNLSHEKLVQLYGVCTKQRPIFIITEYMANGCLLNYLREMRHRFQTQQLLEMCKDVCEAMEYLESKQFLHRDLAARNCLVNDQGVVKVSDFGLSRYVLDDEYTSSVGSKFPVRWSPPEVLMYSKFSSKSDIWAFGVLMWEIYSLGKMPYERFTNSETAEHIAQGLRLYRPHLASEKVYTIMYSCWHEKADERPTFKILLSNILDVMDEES
Protocol: (§1) To one aliquot of cell lysate 10 μM of the free compound (FIG. 3, CZC31326) was added and allowed to bind to proteins in the lysate. Then the affinity matrix with the immobilized compound was added to capture proteins that were not interacting with the previously added free compound. Beads were separated from the lysate and bead bound proteins were eluted in SDS sample buffer and subsequently separated by SDS-Polyacrylamide gel electrophoresis (FIG. 8). Suitable gel bands were cut out and subjected to in-gel proteolytic digestion with trypsin. The second lysate aliquot was processed identically, however no free compound was added (DMSO solvent control). Peptides originating from samples 1 and 2 were labeled with iTRAQ reagents (iTRAQ 114 and iTRAQ 117) and the combined samples were analyzed with a nano-flow liquid chromatography system coupled online to a tandem mass spectrometer (LC-MS/MS) experiment followed by iTRAQ reporter ion quantification in the MS/MS spectra as described in Example 2.
(§2) For this experiment the human plasma cell leukaemia line L-363 was used (German Collection of Microorganisms and Cell Cultures, DSMZ number ACC49, Braunschweig, Germany). Cells were treated for three hours with 20 μM of the proteasome inhibitor MG132 (Z-Leu-Leu-Leu-al, Sigma C2211) prior to cell harvesting.

AAK1 = AAK1 (Homo sapiens, UniProt Q2M2I8); test: Kinobeads competition binding, L-363 cell lysate; design: capturing and identification of kinases from L-363 cell lysate; endogenous in cells; host or cells: L-363 cells, treated with MG132 before harvest; settings: 10 μM free compound, L-363 lysate
AAK1, sequence (Q2M2I8 whole entry): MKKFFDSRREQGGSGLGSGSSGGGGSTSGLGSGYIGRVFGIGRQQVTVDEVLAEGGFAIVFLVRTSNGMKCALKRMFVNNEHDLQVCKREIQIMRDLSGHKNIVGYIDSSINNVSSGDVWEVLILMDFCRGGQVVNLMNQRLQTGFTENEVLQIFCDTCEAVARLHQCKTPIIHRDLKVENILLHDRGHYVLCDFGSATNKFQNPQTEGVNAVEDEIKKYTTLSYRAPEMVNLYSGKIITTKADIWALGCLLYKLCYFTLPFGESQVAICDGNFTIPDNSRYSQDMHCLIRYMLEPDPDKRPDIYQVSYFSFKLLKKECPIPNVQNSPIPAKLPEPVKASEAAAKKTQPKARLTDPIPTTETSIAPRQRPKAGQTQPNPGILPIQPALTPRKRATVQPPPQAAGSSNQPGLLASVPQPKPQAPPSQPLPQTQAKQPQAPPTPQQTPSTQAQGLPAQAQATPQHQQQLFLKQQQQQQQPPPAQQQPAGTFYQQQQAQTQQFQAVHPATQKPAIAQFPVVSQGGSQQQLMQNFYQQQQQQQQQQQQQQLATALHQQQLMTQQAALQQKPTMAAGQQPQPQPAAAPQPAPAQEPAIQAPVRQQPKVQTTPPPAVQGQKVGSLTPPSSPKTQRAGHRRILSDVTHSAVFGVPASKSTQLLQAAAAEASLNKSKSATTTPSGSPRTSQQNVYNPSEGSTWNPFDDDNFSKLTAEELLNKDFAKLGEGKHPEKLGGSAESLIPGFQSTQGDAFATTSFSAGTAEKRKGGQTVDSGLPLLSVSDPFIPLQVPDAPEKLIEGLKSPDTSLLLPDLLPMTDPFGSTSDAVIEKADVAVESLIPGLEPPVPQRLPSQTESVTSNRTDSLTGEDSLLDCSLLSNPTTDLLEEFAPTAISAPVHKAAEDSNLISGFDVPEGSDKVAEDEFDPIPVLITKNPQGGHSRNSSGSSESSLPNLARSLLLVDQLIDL
Protocol: as §1, §2

IC50 (IRAK4): 40 nM | Competition % (BTK): 95.7% | inhibition at 10 µM (AAK1): 97.4%
Compound: CS(=O)(=O)Nc1ccccc1Nc1nc(Nc2cccc(OCCN)c2)ncc1Cl [CZC31326, N-(2-(2-(3-(2-aminoethoxy)phenylamino)-5-chloropyrimidin-4-ylamino)phenyl)methanesulfonamide]
